Source: ChEMBL document CHEMBL4396942, “19-Hydroxyeicosatetraenoic acid analogs: Antagonism of 20-hydroxyeicosatetraenoic acid-induced vascular sensitization and hypertension” (Bioorg Med Chem Lett, 2019)
Active and inactive are the calls of the source. The rule behind the calls is not given here.

Columns and labels:
[1] = Solubility of compound in water; assay type: physicochemical
[2] = Vasodilating activity in rat renal preglomerular microvessels assessed as effect on 20-HETE induced sensitization toward phenylephrine at 1 uM relative to 20-HETE; assay type: functional
Rattus norvegicus [3] = species on record: Rattus norvegicus; test: Vasodilating activity in rat gracilis muscle arteriole assessed as change in internal diameter; assay type: functional
Rattus norvegicus [4] = species on record: Rattus norvegicus; test: Vasodilating activity in rat gracilis muscle arteriole assessed as inhibition of 20-HETE induced change in internal diameter; assay type: functional
Mus musculus = test: Reversal of androgen-driven 20-HETE-induced hypertension in Cyp4a14(-/-) mouse assessed as reduction in systolic blood pressure at 10 mg/kg, ip daily and measured for 10 days; assay type: functional, organism-based

| SMILES | fold change (FC) [2] | other results |
| --- | --- | --- |
| C[C@H](O)CCC/C=C\CCCCCCC/C=C\CCCC(=O)[O-].[Na+] | -0.68 | solubility [1]: 250 µg/mL |
| C[C@@H](O)CCC/C=C\CCCCCCC/C=C\CCCC(=O)NCC(=O)[O-].[Na+] | -4.47 | solubility [1]: 500 µg/mL |
| O=C([O-])CCC/C=C\CCCCCCC/C=C\CCCCO.[Na+] | -0.68 | – |
| O=C([O-])CNC(=O)CCC/C=C\CCCCCCC/C=C\CCCCO.[Na+] | -0.74 | – |
| C[C@H](O)CCC/C=C\CCCCCCC/C=C\CCCC(=O)N[C@@H](CC(=O)[O-])C(=O)[O-].[Na+].[Na+] | -0.59 | – |
| CC(O)CCCCCCCCCCCC/C=C\CCCC(=O)[O-].[Na+] (centres undefined) | -0.66 | – |
| CC(O)CCC/C=C\CCCCCCCCCCCCC(=O)[O-].[Na+] (centres undefined) | -0.79 | – |
| C[C@@H](O)CCC/C=C\CCCCCCC/C=C\CCCC(=O)[O-].[Na+] | -0.85 | solubility [1]: 250 µg/mL |
| CC(O)CCCC/C=C\CCCCCCC/C=C\CCCC(=O)NCC(=O)[O-].[Na+] (centres undefined) | 0.58 | – |
| C[C@@H](O)CCC/C=C\CCCCCCC/C=C\CCCC(=O)N[C@@H](CC(=O)O)C(=O)O | – | Activity (Rattus norvegicus [3]): inactive; Activity (Rattus norvegicus [4]): Dose-dependent effect; Activity (Mus musculus): Active |
| C[C@H](O)CCC/C=C\CCCCCCC/C=C\CCCC(=O)NCC(=O)[O-].[Na+] | – | solubility [1]: 500 µg/mL |
| CC(O)CCC/C=C\CCCCCCC/C=C\CCCc1nnn[nH]1 (centres undefined) | -0.78 | – |
| [N-]=[N+]=N[C@@H](CO)CCC/C=C\CCCCCCC/C=C\CCCC(=O)[O-].[Na+] | 0.5 | – |
| [N-]=[N+]=N[C@H](CO)CCC/C=C\CCCCCCC/C=C\CCCC(=O)[O-].[Na+] | 0.16 | – |
